Calls of active or inactive are those of the source.
Legend:
[1] = target: T1, Polyadenylate-binding protein 1 (Homo sapiens, UniProt P11940); assay: PABP1 MLLE–PAM2 binding inhibitor potency, dose response, biochemical, fluorescence polarization, FITC-PAM2 peptide (AID 602259); format: functional; settings: read-out: IC50_Mean
[2] = target: T1, Polyadenylate-binding protein 1; assay: PABP1 MLLE–PAM2 interaction inhibitors, dose response, miRNA deadenylation inhibitor project, biochemical, fluorescence polarization, Cy5-PAM2 peptide, secondary (AID 602260); format: functional; settings: read-out: IC50_Mean
[3] = off-target signal loss in HeLa-CEM21 co-culture – HeLa F-luc CTL cells, cherry-picked, counter-screen for HIV-1 Env fusion inhibitor project, dose response (AID 652040); format: functional, cell-based;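 also: potency for signal decrease marking cytotoxic or nonspecific inhibition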
[4] = inhibitors of clade B AD8 Env fusion, dose response, cell-based, cherry-pick (AID 652062); format: functional;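 also: luciferase signal from cell-cell fusion driven by HIV-1 clade B AD8 Env; potency is for inhibitors of fusion seen as a drop in luminescence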
[5] = inhibitors of HIV Env-driven cell fusion, dose response, cherry-pick (AID 652057); format: functional, cell-based
[6] = ZM109 Env clade C HIV-1 fusion inhibitors, dose response, HeLa effector, CEM target cells, luciferase, cherry-pick (AID 652058); format: functional, cell-based
[7] = Luminescence Cell-Based Dose Confirmation HTS to Identify Activators of 5'UTR Stem-Loop Driven Alpha-Synuclein mRNA Translation in H4 Neuroglioblastoma Cells. [Related pubchem assays: 1829 (Project Summary), 1814 (Primary HTS)]; format: functional
[8] = test system: H4; assay: Luminescence Cell-Based Dose Response HTS to Identify Activators of 5'UTR Stem-Loop Driven Prion Protein mRNA Translation in H4 Neuroglioblastoma Cells. [Related pubchem assays: 1829 (Project Summary), 1814 (Primary HTS)]; format: functional; settings: Homo sapiens
[9] = Luminescence Cell-Based Dose Response HTS to Identify Activators of Luciferase Translation or Activity in H4 […] Cells. [Related pubchem assays: 1829 (Project Summary), 1814 (Primary HTS)]; format: functional
[10] = target: T2, Rac GTPase-activating protein 1 (Homo sapiens, UniProt Q9H0H5); assay: MgcRacGAP GTPase-activating activity inhibitors, confirmation, biochemical, ADP Hunter fluorescence, primary and confirmatory (AID 624330); format: functional
T2 sequence (Q9H0H5 whole entry): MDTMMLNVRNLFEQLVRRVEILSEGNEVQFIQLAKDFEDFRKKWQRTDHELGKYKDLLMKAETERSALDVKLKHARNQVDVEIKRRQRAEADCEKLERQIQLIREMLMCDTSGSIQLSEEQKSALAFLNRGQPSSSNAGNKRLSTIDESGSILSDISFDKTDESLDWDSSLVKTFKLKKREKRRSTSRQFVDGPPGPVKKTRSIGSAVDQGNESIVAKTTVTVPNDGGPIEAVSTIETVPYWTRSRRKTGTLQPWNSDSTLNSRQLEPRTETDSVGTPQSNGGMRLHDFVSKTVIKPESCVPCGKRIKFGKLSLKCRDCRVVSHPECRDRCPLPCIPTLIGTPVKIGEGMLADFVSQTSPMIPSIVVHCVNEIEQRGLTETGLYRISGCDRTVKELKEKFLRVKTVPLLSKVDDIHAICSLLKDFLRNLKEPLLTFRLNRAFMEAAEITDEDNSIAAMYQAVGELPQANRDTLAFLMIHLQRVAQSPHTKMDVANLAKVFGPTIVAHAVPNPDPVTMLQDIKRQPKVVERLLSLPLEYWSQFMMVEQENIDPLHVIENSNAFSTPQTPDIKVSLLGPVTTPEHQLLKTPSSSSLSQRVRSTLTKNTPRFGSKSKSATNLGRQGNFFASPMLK

[11] = inhibitors of SNCA 5'UTR-driven reporter translation, confirmation, H4 neuroglioma cells, luminescence (AID 1988); format: functional, cell-based
[12] = Luminescence Cell-Based Dose Retest to Confirm Inhibitors of Cancer Stem Cells. [Related pubchem assays (depositor defined):AID2717, AID2721]; format: functional; settings: Homo sapiens
[13] = inhibitors of firefly luciferase expression or activity, dose response, H4 neuroglioma cells, luminescence (AID 1990); format: functional, cell-based
[14] = Luminescence Cell-Based Dose Response HTS to Identify Inhibitors of 5'UTR Stem-Loop Driven Prion Protein mRNA Translation in H4 Neuroglioblastoma Cells. [Related pubchem assays: 1827 (Project Summary), 1813 (Primary HTS)]; format: functional
[15] = test system: INS1; assay: beta cell apoptosis inhibitors, cytokine rescue, dose response, luminescence, retest (AID 449756); format: functional, cell-based; settings: Rattus norvegicus;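 also: cell death triggered by IL-1 beta plus TNF-alpha plus IFN-gamma mixture; protective hits raise ATP signal compared with cytokine alone wells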
[16] = P. falciparum Dd2 growth inhibitors, dose response, SYBR Green, cherry-picked samples (AID 1159567); format: functional, cell-based
[17] = target: T3, Streptokinase A (Streptococcus pyogenes serotype M1, UniProt P10520); assay: S. pyogenes streptokinase expression inhibitors, potency, dose response, plasminogen activation absorbance, OD405 (AID 1914); format: functional, Streptococcus pyogenes M1 GAS;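 also: secreted streptokinase activity via plasminogen activation per viability signal from cell pellet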
T3 sequence (P10520 whole entry): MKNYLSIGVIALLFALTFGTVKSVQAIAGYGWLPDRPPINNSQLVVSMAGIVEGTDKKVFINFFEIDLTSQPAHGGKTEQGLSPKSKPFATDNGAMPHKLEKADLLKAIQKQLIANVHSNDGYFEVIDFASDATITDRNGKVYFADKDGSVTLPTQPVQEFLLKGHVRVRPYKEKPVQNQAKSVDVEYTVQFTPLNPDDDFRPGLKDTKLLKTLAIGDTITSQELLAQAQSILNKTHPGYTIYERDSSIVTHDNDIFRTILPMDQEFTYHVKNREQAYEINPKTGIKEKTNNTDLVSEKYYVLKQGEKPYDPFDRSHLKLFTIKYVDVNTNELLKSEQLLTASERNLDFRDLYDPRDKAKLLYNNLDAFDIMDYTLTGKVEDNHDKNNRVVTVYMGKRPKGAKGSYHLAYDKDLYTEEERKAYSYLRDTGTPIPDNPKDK

[18] = target: T4, Heat shock factor protein 1 (Mus musculus, UniProt P38532); assay: inhibition of MG132-induced HSE-luciferase signal, confirmation, cell-based, NIH3T3, luminescence, dose retest (AID 2382); format: functional;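 also: NIH3T3 fibroblasts with HSF1-driven luciferase reporter stressed by proteasome inhibitor MG132; luminescence from HSF1-driven luciferase expression after 8 hours of MG132 stress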
T4 sequence (P38532 whole entry): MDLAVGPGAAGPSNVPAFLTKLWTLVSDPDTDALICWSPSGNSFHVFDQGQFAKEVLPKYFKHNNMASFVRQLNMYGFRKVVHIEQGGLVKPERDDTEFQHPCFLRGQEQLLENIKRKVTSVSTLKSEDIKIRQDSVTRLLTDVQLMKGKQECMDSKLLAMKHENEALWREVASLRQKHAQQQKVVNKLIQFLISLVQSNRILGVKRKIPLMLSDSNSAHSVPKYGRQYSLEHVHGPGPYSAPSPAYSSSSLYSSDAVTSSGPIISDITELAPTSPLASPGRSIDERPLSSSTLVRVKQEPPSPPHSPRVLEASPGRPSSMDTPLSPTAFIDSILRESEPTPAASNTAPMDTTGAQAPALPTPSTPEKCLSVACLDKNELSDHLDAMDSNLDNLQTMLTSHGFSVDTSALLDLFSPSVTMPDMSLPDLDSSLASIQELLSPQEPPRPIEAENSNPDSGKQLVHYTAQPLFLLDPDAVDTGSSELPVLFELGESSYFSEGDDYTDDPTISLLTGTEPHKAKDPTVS

T1 sequence (P11940 whole entry): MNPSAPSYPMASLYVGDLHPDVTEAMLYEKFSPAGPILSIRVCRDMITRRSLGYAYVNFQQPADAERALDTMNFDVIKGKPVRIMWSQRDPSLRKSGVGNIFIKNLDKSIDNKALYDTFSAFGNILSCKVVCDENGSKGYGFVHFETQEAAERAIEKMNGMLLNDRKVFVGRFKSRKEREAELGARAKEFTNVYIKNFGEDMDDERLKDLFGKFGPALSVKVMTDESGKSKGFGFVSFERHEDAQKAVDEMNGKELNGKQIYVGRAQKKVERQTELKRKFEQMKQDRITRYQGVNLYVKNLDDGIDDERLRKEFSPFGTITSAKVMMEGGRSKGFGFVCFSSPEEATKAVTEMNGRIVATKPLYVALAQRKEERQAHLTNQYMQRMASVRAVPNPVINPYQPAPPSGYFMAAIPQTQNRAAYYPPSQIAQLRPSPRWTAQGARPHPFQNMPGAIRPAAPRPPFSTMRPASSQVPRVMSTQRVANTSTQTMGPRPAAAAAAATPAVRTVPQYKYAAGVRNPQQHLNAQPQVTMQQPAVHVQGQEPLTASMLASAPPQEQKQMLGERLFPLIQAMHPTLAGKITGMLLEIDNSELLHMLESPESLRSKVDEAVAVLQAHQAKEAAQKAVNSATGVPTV

CN1C(=O)/C(=C2/C=CC=CN2C)OC1=S
IC50 [1]: > 66 µM (inactive) | IC50 [2]: > 66 µM (inactive)

CC(C)(COC(=O)C(c1ccccc1)c1ccccc1)CN1CCOCC1
AC50 [3]: 4.01 µM (active) | AC50 [4]: 1.83 µM (active) | AC50 [5]: 4.96 µM (active) | AC50 [6]: 2.42 µM (active)

O=C(CSc1nnc(C2COc3ccccc3O2)o1)N1CCCC1 (stereo unspecified)
IC50 [1]: > 66 µM (inactive) | IC50 [2]: > 66 µM (inactive)

C[C@H](CO)N1C[C@H](C)[C@H](CN(C)C(=O)Cc2ccccc2)OCc2ccccc2-c2c(n(C)c3ccccc23)C1=O
AC50 [4]: < 0.26 µM (active) | AC50 [5]: < 0.26 µM (active) | AC50 [6]: < 0.26 µM (active)

O=C(CCCOc1ccc(Cl)cc1Cl)Nc1cc(S(=O)(=O)N2CCOCC2)ccc1N1CCOCC1
AC50 [3]: 6.33 µM (active) | AC50 [4]: 15.8 µM (active) | AC50 [5]: 3.23 µM (active) | AC50 [6]: 11.8 µM (active)

CCOc1ccc(C2CC(c3ccc(CC)cc3)Nc3nc(N)nn32)cc1 (stereo unspecified)
EC50 [7]: > 120 µM (not active) | EC50 [8]: 19.7 µM (active) | EC50 [9]: 10.5 µM (active)

O=C1C2C3C=CC(C4CC34)C2C(=O)N1/N=C/c1c[nH]c2ccccc12 (stereo unspecified)
EC50 [7]: 11 µM (active) | EC50 [8]: 14.9 µM (active) | EC50 [9]: > 120 µM (not active)

COc1ccc2[nH]c3c(=O)n(CCCCC(=O)N4CCC(C(N)=O)CC4)c(=S)[nH]c3c2c1
IC50 [10]: 55.4 µM (active) | IC50 [1]: > 66 µM (inactive) | IC50 [2]: > 66 µM (inactive)

CS(=O)(=O)N1CCN(C(=O)C(Sc2ccccc2)c2ccccc2)CC1 (stereo unspecified)
IC50 [1]: > 66 µM (inactive) | IC50 [2]: > 66 µM (inactive)

CCOC(=O)c1cc(O)n2c(n1)nc1ccccc12
EC50 [7]: 15.8 µM (active) | EC50 [8]: 20.4 µM (active) | EC50 [9]: 11.4 µM (active)

O=C1C(CSCc2ccccc2)NC(=S)N1c1ccccc1 (stereo unspecified)
EC50 [7]: > 120 µM (not active) | EC50 [8]: > 120 µM (not active) | EC50 [9]: > 120 µM (not active)

CC(C)[C@H](CN(N=O)[C@@H](Cc1ccccc1)CN(C)N=O)N(CCc1ccccc1)N=O
AC50 [3]: 10.8 µM (active) | AC50 [4]: 15.5 µM (active) | AC50 [5]: 5.66 µM (active) | AC50 [6]: 12.3 µM (active)

CCCCCc1cc(=O)oc2c(C(CCN3CCCC(C)C3)c3cc(OC)c(OC)c(OC)c3)c(OC)cc(OC)c12 (stereo unspecified)
EC50 [11]: > 120 µM (not active) | AC50 [12]: 6.25 µM (active) | EC50 [13]: > 120 µM (not active) | EC50 [14]: > 120 µM (not active) | AC50 [15]: 8.07 µM (active)

C/C=C/c1ccc([C@H]2[C@@H](CO)N(C(=O)C3CCCC3)[C@H]2CNCCC)cc1
AC50 [16]: 4.85 µM (active)

O=C(C1CCC1)N1CC(=O)N2[C@H](CO)[C@@H](c3ccc(C#CCc4ccccc4)cc3)[C@H]2C1
AC50 [16]: 9.44 µM (active)

CCCOc1ccc2ccccc2c1/C=N/n1cnnc1
AC50 [3]: 25.6 µM (active) | AC50 [4]: 18.5 µM (active) | AC50 [5]: 24.8 µM (active) | AC50 [6]: 4.27 µM (active)

CC(=O)c1c(C)oc2ccc(N(C(C)=O)S(=O)(=O)c3cccc4cccnc34)cc12
AC50 [15]: 3.85 µM (active)

CCc1ccc(S(=O)(=O)N=C(S)NC2CCCCC2)cc1
IC50 [1]: > 66 µM (inactive) | IC50 [2]: > 66 µM (inactive)

CC(=O)c1ccc(NC(=S)Nc2ccc(Br)c(Cl)c2)cc1
EC50 [17]: > 150 µM (not active) | IC50 [1]: > 66 µM (inactive) | IC50 [2]: > 66 µM (inactive)

CC(C)C[C@@H](CN(C)N=O)N(C[C@H](Cc1ccccc1)N(CCc1ccccc1)N=O)N=O
AC50 [3]: 7.74 µM (active) | AC50 [4]: 7.36 µM (active) | AC50 [5]: 4.34 µM (active) | AC50 [6]: 5.62 µM (active)

Cc1ccc(S(=O)(=O)N2CCCCC2)cc1C(=O)NCCC1=CCCCC1
AC50 [3]: 7.03 µM (active) | AC50 [4]: 17.1 µM (active) | AC50 [5]: 3.71 µM (active) | AC50 [6]: 5.36 µM (active)

Cc1ccc(Cn2ncn(-c3ccccc3)c2=O)cc1
EC50 [7]: 14.4 µM (active) | EC50 [8]: 7.14 µM (active) | EC50 [9]: 24.1 µM (active)

CCc1ccc(-c2cn3nc(C)c(C)nc3n2)cc1
AC50 [3]: 11 µM (active) | AC50 [4]: 6.35 µM (active) | AC50 [5]: 3.94 µM (active) | AC50 [6]: 29.3 µM (active)

COc1ccc(NC(=O)Nc2cccc3cccnc23)cc1
EC50 [7]: 21.7 µM (active) | EC50 [8]: 21.2 µM (active) | EC50 [9]: 5.48 µM (active)

Fc1ccc(CN(Cc2ccccc2)C(c2cccs2)c2nnnn2C2CCCCC2)cc1 (stereo unspecified)
AC50 [15]: 6.47 µM (active)

CCCN(C)C[C@@H]1Oc2cc(C#Cc3ccncc3)ccc2S(=O)(=O)N([C@H](C)CO)C[C@@H]1C
AC50 [16]: 6.76 µM (active)

O=C(CSc1c[nH]nn1)Nc1ccc(O)c(C(=O)O)c1
EC50 [18]: > 195 µM (not active) | IC50 [1]: > 66 µM (inactive) | IC50 [2]: > 66 µM (inactive)

— ChEMBL document CHEMBL1201862, “PubChem BioAssay data set” (2004)
